# Experimental data reported in patent US5478812A, “Chromanol glycoside and method for production thereof” (CCI Corporation, priority 1993, dated 1995).
# Where two headings read alike, the source gives them in different places.
# Assays:
# [1] = solubility in water; type: physicochemical; conditions: 25 °C, constant stirring at 200 rpm, HPLC; for solubility: water, read-out: solubility in water (amounts of sample dissolved in 1 ml of water)
# Text: The chromanol glycoside obtained in Examples 1 to 5 [6-hydroxy-2,5,7,8-tetramethyl chroman-2-methyl-α-D-glucopyranoside represented by the aforementioned formula (4)], the chromanol glycoside obtained in Examples 6 to 8 [6-hydroxy-2,5,7,8-tetramethyl chroman-2-ethyl-α-D-glucopyranoside represented by the aforementioned formula (7)], the chromanol glycoside obtained in Examples 4 and 5 [6-hydroxy-2,5,7,8-tetramethyl chroman-2-methyl-α-D-maltopyranoside represented by the aforementioned formula (5)], and the chromanol glycoside obtained in Example 8 [6-hydroxy-2,5,7,8-tetramethyl chroman-2-ethyl-α-D-maltopyranoside represented by the aforementioned formula (8)] were tested for solubility in water. Specifically, this test was performed by adding an excess amount of a given chromanol glycoside to 1 ml of water. The reaction mixture was incubated at 25° C. for […] with constant stirring at 200 rpm. After 100 hours, the reaction mixture was transferred into a membrane filter (produced by Nihon Millipore Ltd. and marketed under trademark designation of "HPLC Sample Prep C02-LG") and insoluble substances were removed by centrifugation (4,100×g, 10 minutes, 20° C.). The filtered solution was subjected to HPLC to determine the amount of chromanol glycoside remaining in the aqueous solution. For the purpose of comparison, the 2-substituted alcohols represented by the aforementioned formulas (3) and […] and Trolox were similarly tested.
# The numerals given in the tables represent the amounts of sample dissolved in 1 ml of water.
# [2] = pH stability; type: physicochemical; conditions: 5.5 mM, buffer/ethanol 5:1 v/v; for remaining at 100 h, 5500 µM: read-out: Residual amounts (%) after 100 hours; for Residual amounts (%) after 100 hours: 5500 µM
# Text: The chromanol glycoside obtained in Examples 1 to 5 [6-hydroxy-2,5,7,8-tetramethyl chroman-2-methyl-α-D-glucopyranoside represented by the aforementioned formula (4)], the chromanol glycoside obtained in Examples 6 to 8 [6-hydroxy-2,5,7,8-tetramethyl chroman-2-ethyl-α-D-glucopyranoside represented by the aforementioned formula (7)], the chromanol glycoside obtained in Examples 4 and 5 [6-hydroxy-2,5,7,8-tetramethyl chroman-2-methyl-α-D-maltopyranoside represented by the aforementioned formula (5)], and the chromanol glycoside obtained in Example 8 [6 -hydroxy-2,5,7,8-tetramethyl chroman-2-ethyl-α-D-maltopyranoside represented by the aforementioned formula (8)] were tested for pH stability. This test was specifically performed by incubating a 5.5 mM chromanol glycoside solution (buffer/ethanol, 5:1 v/v) having a varying pH value. At regular intervals, aliquots of the reaction mixture were withdrawn and the residual amounts of chromanol glycoside were measured by HPC. For the purpose of comparison, the 2-substituted alcohols represented by the aforementioned formulas (3) and (6) and Trolox were similarly tested.
# It is clearly noted from the test results that the conversion of 2-substituted alcohols into respective glycosides enhances pH stability. The buffer used for the test were 100 mM acetate buffer of pH 5.5, 100 mM phosphate buffer of pH 7.0, and 100 mM tris-HCl buffer of pH 8,5.
# [3] = antioxidant activity using liposomal membranes (phosphatidylcholine hydroperoxides); type: biochemical; conditions: 0.1 μmol antioxidant in 1.1 ml 10 mM tris-HCl buffer pH 7.4; water-soluble radical generator; in words
# Text: Antioxidant activity on the chromanol glycoside obtained in Examples 1 to 5 [6-hydroxy-2,5,7,8-tetramethyl chroman-2-methyl-α-D-glucopyranoside represented by the aforementioned formula (4)[, the chromanol glycoside obtained in Examples 6 to 8 [6-hydroxy-2,5,7,8-tetramethyl chroman-2-ethyl-α-D-glucopyranoside represented by the aforementioned formula (7)], the chromanol glycoside obtained in Examples 4 and 5 [6-hydroxy-2,5,7,8-tetramethyl chroman-2-methyl-α-D-maltopyranoside represented by the aforementioned formula (5)], and the chromanol glycoside obtained in Example 8 [6-hydroxy-2,5,7,8-tetramethyl chroman-2-ethyl-α-D-malto-pyranoside represented by the aforementioned formula (8)] was investigated by using a liposonal membranes. Specifically, this test was performed by adjusting a reaction solution consisting of 5.5 μmol of a multilameller liposomes of egg yolk phosphatidylcholine, 16.5 μmol of a water-soluble radical generator [2,2'-azo-bis(2-amidinopropane) dihydrochloride], and 0.1 μmol of antioxidant in 1.1 ml of a 10 mM tris-HCl buffer (pH 7.4). At regular intervals, aliquots of the reaction mixture were withdrawn and the amount of phosphatidylcholine hydroperoxides were measured by HPLC.
# [4] = hydroperoxidation of methyl linoleate via radical chain reaction in hexane/isopropyl alcohol; type: biochemical; conditions: 0.1 μmol antioxidant in 1.1 ml hexane/isopropyl alcohol 1:1; 37 °C; oil-soluble radical generator; in words
# Text: Antioxidant activity on the chromanol glycoside obtained in Examples 1 to 5 [6-hydroxy-2,5,7,8-tetramethyl chroman-2-methyl-α-D-glucopyranoside represented by the aforementioned formula (4)], the chromanol glycoside obtained in Examples 6 to 8 [6-hydroxy-2,5,7,8-tetramethyl chroman-2-ethyl-α-D-glucopyranoside represented by the aforementioned formula (7)], the chromanol glycoside obtained in Examples 4 and 5 [6-hydroxy-2,5,7,8-tetramethyl chroman-2-methyl-α-D-maltopyranoside represented by the aforementioned formula (5)], and the chromanol glycoside obtained in Example 8 [6-hydroxy-2,5,7,8-tetramethyl chroman-2-ethyl-α-D-maltopyranoside represented by the aforementioned formula (8)] was investigated by measuring the hydroperoxidation of methyl linoleate via radical chain reaction. Specifically, this test was performed by incubating 132 μmol of methyl linoleate, 16.5 μmol of an oil-soluble radical generator [2,2'-azo-bis(2,4-dimethyl valeronitrile)], 0.1 μmol of antioxidant in 1.1 ml of a hexane/isopropyl alcohol (1:1 v/v), and the mixture was incubated at 37° C. At regular intervals, aliquots of the reaction mixture were withdrawn and the amount of methyl linoleate hydroperoxides were measured by HPLC. […] EXAMPLE 10
# [5] = acetate buffer/ethanol 5:1, pH 5.5, pH 5.5 (100 mM acetate buffer)
# [6] = phosphate buffer/ethanol 5:1, pH 7, pH 7.0 (100 mM phosphate buffer)
# [7] = tris-hcl buffer/ethanol 5:1, pH 8.5, pH 8.5 (100 mM tris-HCl buffer)
Compound,solubility [1],"remaining at 100 h, 5500 µM [2, 5]","remaining at 100 h, 5500 µM [2, 6]","remaining at 100 h, 5500 µM [2, 7]",antioxidant activity (phosphatidylcholine hydroperoxides) [3],antioxidant activity (methyl linoleate hydroperoxides) [4],other results
"Cc1c(C)c2c(c(C)c1O)CCC(C)(CO)O2 (racemic) [formula (3), reference compound]",1 mg/mL,73%,29%,7%,,,
"Cc1c(C)c2c(c(C)c1O)CCC(C)(CCO)O2 (racemic) [formula (6), reference compound]",0.1 mg/mL,63%,19%,3%,,,
"Cc1c(C)c2c(c(C)c1O)CCC(C)(CO[C@H]1O[C@H](CO)[C@@H](O)[C@H](O)[C@H]1O)O2 (stereo partly drawn) [formula (4), 6-hydroxy-2,5,7,8-tetramethyl chroman-2-methyl-α-D-glucopyranoside]",~1000 mg/mL,91%,41%,20%,more effective antioxidants than ascorbic acid,"excel 3,5-tert-butyl-4-hydroxytoluene and equal α-tocopherol","solubility in water (amounts of sample dissolved in 1 ml of water) ([1]; listed as formula (4) of Example 3): About 1000 mg/ml; solubility in water (amounts of sample dissolved in 1 ml of water) ([1]; listed as formula (4) of Example 4): About 1000 mg/ml; solubility in water (amounts of sample dissolved in 1 ml of water) ([1]; listed as formula (4) of Example 5): About 1000 mg/ml; Residual amounts (%) after 100 hours ([2]; pH 5.5 (100 mM acetate buffer), listed as formula (4) of Example 2, 6000 min): 85%; Residual amounts (%) after 100 hours ([2]; pH 5.5 (100 mM acetate buffer), listed as formula (4) of Example 3, 6000 min): 89%; Residual amounts (%) after 100 hours ([2]; pH 5.5 (100 mM acetate buffer), listed as formula (4) of Example 4, 6000 min): 84%; Residual amounts (%) after 100 hours ([2]; pH 5.5 (100 mM acetate buffer), listed as formula (4) of Example 5, 6000 min): 88%; Residual amounts (%) after 100 hours ([2]; pH 7.0 (100 mM phosphate buffer), listed as formula (4) of Example 2, 6000 min): 42%; Residual amounts (%) after 100 hours ([2]; pH 7.0 (100 mM phosphate buffer), listed as formula (4) of Example 3, 6000 min): 43%; Residual amounts (%) after 100 hours ([2]; pH 7.0 (100 mM phosphate buffer), listed as formula (4) of Example 4, 6000 min): 44%; Residual amounts (%) after 100 hours ([2]; pH 7.0 (100 mM phosphate buffer), listed as formula (4) of Example 5, 6000 min): 43%; Residual amounts (%) after 100 hours ([2]; pH 8.5 (100 mM tris-HCl buffer), listed as formula (4) of Example 2, 6000 min): 19%; Residual amounts (%) after 100 hours ([2]; pH 8.5 (100 mM tris-HCl buffer), listed as formula (4) of Example 4, 6000 min): 19%; Residual amounts (%) after 100 hours ([2]; pH 8.5 (100 mM tris-HCl buffer), listed as formula (4) of Example 5, 6000 min): 21%"
"Cc1c(C)c2c(c(C)c1O)CCC(C)(CO[C@H]1O[C@H](CO)[C@@H](O[C@H]3O[C@H](CO)[C@@H](O)[C@H](O)[C@H]3O)[C@H](O)[C@H]1O)O2 (stereo partly drawn) [formula (5), 6-hydroxy-2,5,7,8-tetramethyl chroman-2-methyl-α-D-maltopyranoside]",,84%,40%,19%,more effective antioxidants than ascorbic acid,"excel 3,5-tert-butyl-4-hydroxytoluene and equal α-tocopherol","Residual amounts (%) after 100 hours ([2]; pH 5.5 (100 mM acetate buffer), listed as formula (5) of Example 5, 6000 min): 86%; Residual amounts (%) after 100 hours ([2]; pH 7.0 (100 mM phosphate buffer), listed as formula (5) of Example 5, 6000 min): 44%; Residual amounts (%) after 100 hours ([2]; pH 8.5 (100 mM tris-HCl buffer), listed as formula (5) of Example 5, 6000 min): 20%"
"Cc1c(C)c2c(c(C)c1O)CCC(C)(CCO[C@H]1O[C@H](CO)[C@@H](O)[C@H](O)[C@H]1O)O2 (stereo partly drawn) [formula (7), 6-hydroxy-2,5,7,8-tetramethyl chroman-2-ethyl-α-D-glucopyranoside]",33 mg/mL,69%,24%,7%,more effective antioxidants than ascorbic acid,"excel 3,5-tert-butyl-4-hydroxytoluene and equal α-tocopherol","solubility in water (amounts of sample dissolved in 1 ml of water) ([1]; listed as formula (7) of Example 7): 45 mg/mL; solubility in water (amounts of sample dissolved in 1 ml of water) ([1]; listed as formula (7) of Example 8): 45 mg/mL; Residual amounts (%) after 100 hours ([2]; pH 5.5 (100 mM acetate buffer), listed as formula (7) of Example 7, 6000 min): 71%; Residual amounts (%) after 100 hours ([2]; pH 5.5 (100 mM acetate buffer), listed as formula (7) of Example 8, 6000 min): 70%; Residual amounts (%) after 100 hours ([2]; pH 7.0 (100 mM phosphate buffer), listed as formula (7) of Example 7, 6000 min): 26%; Residual amounts (%) after 100 hours ([2]; pH 7.0 (100 mM phosphate buffer), listed as formula (7) of Example 8, 6000 min): 25%; Residual amounts (%) after 100 hours ([2]; pH 8.5 (100 mM tris-HCl buffer), listed as formula (7) of Example 8, 6000 min): 8%"
